Reference: BigSolDB 2.1

CC(=O)N[C@H](C(=O)O)C(C)C
solubility (mole fraction)
Settings	283.15 K	288.15 K	293.15 K	298.15 K	303.15 K	308.15 K	313.15 K	318.15 K	323.15 K	328.15 K
in 1,4-dioxane	–	0.0324	0.0363	0.0427	0.0495	0.06	0.0712	0.0805	0.0921	0.109
in 2-butanone	0.00606	0.00748	0.00907	0.0112	0.0141	0.0176	0.021	0.0245	0.0292	–
in acetone	0.0102	0.0133	0.0163	0.0196	0.0238	0.0284	0.0333	0.039	0.0437	–
in acetonitrile	0.00204	0.0026	0.00352	0.00464	0.0055	0.00668	0.00792	0.00909	0.0105	–
in dimethyl carbonate	0.00116	0.00139	0.00169	0.0021	0.00261	0.00331	0.00395	0.00489	0.00611	–
in ethyl acetate	0.00279	0.00342	0.00403	0.00487	0.006	0.00718	0.00847	0.01	0.0119	–
in isobutanol	0.0341	0.0396	0.0465	0.0566	0.0648	0.0777	0.0881	0.101	0.114	–
in isopropanol	0.0401	0.048	0.0558	0.0662	0.0782	0.091	0.104	0.12	0.134	–
in methyl acetate	0.00339	0.00393	0.00485	0.0058	0.00694	0.0082	0.00972	0.0112	0.0128	–
in n-butanol	0.0371	0.0428	0.0506	0.0595	0.0685	0.0786	0.0902	0.104	0.115	–
in n-propanol	0.0449	0.0512	0.06	0.0747	0.0876	0.111	0.13	0.151	0.171	–
in water	0.00557	0.00611	0.0066	0.00748	0.00872	0.01	0.0116	0.0137	0.0159	–
